According to US6060462A, “Electrophilic peptide analogs as inhibitors of trypsin-like enzymes” (DuPont Pharmaceuticals Company, priority 1997, dated 2000):
Where a name gives a salt, the structure may show the parent alone. Read-outs that look alike come from different tables or passages of the source.

Legend:
Assay type in all cases: biochemical
[1] = biological target: human thrombin (Homo sapiens, UniProt P00734); experiment: Inhibition of thrombin hydrolysis of chromogenic substrate S2238 (Ki); parameters: 0.2-0.5 nM human thrombin or human factor Xa; purchased Enzyme Research Laboratories, South Bend, Ind; conditions: purified human thrombin, 0.10 M sodium phosphate buffer, pH 7.5, read-out: Ki values for inhibition of Serine Proteases: Trombin
Method: (§1) The effectiveness of compounds of the present invention as inhibitors of blood coagulation proteases was determined using purified human proteases and synthetic substrates following procedures similar to those described in Kettner et al. (1990).
(§2) For these assays, the rate of enzymatic (thrombin, Factor Xa, and Factor VIIa) hydrolysis of chromogenic substrates (S2238 (H-D-Phe-Pip-Arg-pNA), S2222, and S2288, respectively; Kabi Pharmacia, Franklin, Ohio) was measured both in the absence and presence of compounds of the present invention. […] A decrease in the rate of absorbance change at 405 nm in the presence of inhibitor is indicative of enzyme inhibition. The results of this assay are expressed as inhibitory constant, Ki.
(§3) Thrombin and Xa determinations were made in 0.10 M sodium phosphate buffer, pH 7.5, containing 0.20 M NaCl, and 0.5% PEG 8000. VIIa determinations were made in 0.05 M tris buffer, pH 7.6, containing 0.10 M NaCl, 4 mM CaCl2, and 0.1% bovine serum albumin.
(§4) Reactions were allowed to go for 30 minutes and the velocities (rate of absorbance change vs time) were measured in the time frame of 25-30 minutes. The following relationship was used to calculate Ki values. [formula] where: vo is the velocity of the control in the absence of inhibitor;
(§5) vs is the velocity in the presence of inhibitor;
(§6) I is the concentration of inhibitor;
(§7) Ki is the dissociation constant of the enzyme: inhibitor complex;
(§8) S is the concentration of substrate;
(§9) Km is the Michaelis constant.

[2] = biological target: T1, human factor Xa (Homo sapiens, UniProt P00742); experiment: Inhibition of Factor Xa hydrolysis of chromogenic substrate S2222 (Ki); conditions: purified human factor Xa, 0.10 M sodium phosphate buffer; for Ki values for inhibition of Serine Proteases: Factor Xa: pH 7.5
T1 construct: 0.2-0.5 nM human thrombin or human factor Xa; purchased Enzyme Research Laboratories, South Bend, Ind
Method: as §1, §2, §3, §4, §5, §6, §7, §8, §9

[3] = biological target: T2, human factor VIIa (Homo sapiens, UniProt P08709); experiment: Inhibition of Factor VIIa hydrolysis of chromogenic substrate S2288 (Ki); conditions: purified human factor VIIa, 0.05 M tris buffer; for Ki: pH 7.6, read-out: Ki values for inhibition of Serine Proteases: Factor VIIa; for Ki values for inhibition of Serine Proteases: Factor VIIa: pH 7.6
T2 construct: 50 nM human factor VIIa (BiosPacific, Emeryville, Calif.); purchased BiosPacific, Emeryville, Calif
T2 sequence (P08709 213-466 limits assumed): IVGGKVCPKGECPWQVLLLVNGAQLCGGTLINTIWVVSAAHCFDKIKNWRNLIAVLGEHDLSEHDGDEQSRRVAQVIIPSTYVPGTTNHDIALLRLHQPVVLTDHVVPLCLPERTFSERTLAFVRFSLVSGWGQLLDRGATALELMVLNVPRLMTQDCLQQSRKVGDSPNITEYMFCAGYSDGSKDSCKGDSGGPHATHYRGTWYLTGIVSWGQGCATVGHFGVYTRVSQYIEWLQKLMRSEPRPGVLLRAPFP
T2 sequence (P08709 61-212 partner limits assumed): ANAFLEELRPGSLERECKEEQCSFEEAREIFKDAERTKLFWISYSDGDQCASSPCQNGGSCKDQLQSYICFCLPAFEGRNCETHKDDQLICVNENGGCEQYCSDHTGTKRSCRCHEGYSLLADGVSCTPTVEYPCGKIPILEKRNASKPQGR
Method: as §1, §2, §3, §4, §5, §6, §7, §8, §9

[4] = pH 7.5, read-out: Ki values for inhibition of Serine Proteases: Factor Xa

T1 sequence (P00742 235-488 limits assumed): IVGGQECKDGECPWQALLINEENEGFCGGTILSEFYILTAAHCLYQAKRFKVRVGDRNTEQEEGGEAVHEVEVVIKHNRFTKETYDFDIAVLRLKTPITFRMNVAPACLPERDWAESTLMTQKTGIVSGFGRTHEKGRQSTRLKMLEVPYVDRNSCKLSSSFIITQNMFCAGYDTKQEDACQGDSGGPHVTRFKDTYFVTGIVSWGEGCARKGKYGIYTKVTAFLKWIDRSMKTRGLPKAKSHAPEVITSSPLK
T1 sequence (P00742 41-179 partner limits assumed): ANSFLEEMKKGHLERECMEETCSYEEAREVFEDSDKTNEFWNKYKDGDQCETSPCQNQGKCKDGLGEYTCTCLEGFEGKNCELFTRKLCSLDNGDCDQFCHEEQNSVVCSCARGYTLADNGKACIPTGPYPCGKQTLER

SMILES | Ki [1] | Ki [2, 4] | Ki [3] | Ki ([2]; pH 7.5, HCl, read-out: Ki values for inhibition of Serine Proteases: Factor Xa) | Ki values for inhibition of Serine Proteases: Factor Xa [2] | Ki values for inhibition of Serine Proteases: Factor VIIa [3]
CC1(C)C2CC3OB(C(CCCNC(=N)N)NC(=O)CN(CCc4ccccc4C4CC4)C(=O)CCc4ccccc4)OC3(C)C1C2 (stereo not drawn) [Example 56.1.2, Hydrocinnamoyl-[N-(2-(Cyclopropyl)-Phenethyl)--Gly]-boroArg-C10H16 HCl] | < 0.5 µM | < 0.5 µM | < 0.5 µM | – | – | –
Cc1cc(C)cc(C(C)(C)CN(CC(=O)NC(CCCN=C(N)N)B2OC3CC4CC(C4(C)C)C3(C)O2)C(=O)CCc2ccccc2)c1 (stereo not drawn) [Example 56.3.3, Hydrocinnamoyl-{N-[2,2-(Dimethyl)-2-(3,5-dimethylphenyl)-ethyl]-Gly}-boroArg-C10H16 HCl] | < 0.5 µM | < 0.5 µM | < 0.5 µM | – | – | –
CC(C)(CN(CC(=O)NC(CCCCN)B(O)O)C(=O)CCc1ccccc1)c1ccccc1 (stereo not drawn) [Example 59.1.1, Hydrocinnamoyl-[N-(2,2-(Dimethyl)-Phenethyl)-Gly]-boroLys--OH HCl] | < 0.5 µM | – | < 0.5 µM | < 50 µM | – | –
CC(C)(CN(CC(=O)NC(CCCN)B1OC2CC3CC(C3(C)C)C2(C)O1)C(=O)CCc1ccccc1)c1ccccc1 (stereo not drawn) [Example 60.3.3, Hydrocinnamoyl-[N-(2,2-(Dimethyl)-Phenethyl)-Gly]-boroOrn-C10H16 HCl] | < 0.5 µM | < 50 µM | < 50 µM | – | – | –
Cc1cc(C)cc(CCN(CC(=O)NC(CCCN)B2OC3CC4CC(C4(C)C)C3(C)O2)C(=O)CCc2ccccc2)c1 (stereo not drawn) [Example 60.4.1, Hydrocinnamoyl-{N-[2-(3,5-dimethylphenyl)-ethyl]-Gly}-boroOrn-C10H16 HCl] | < 0.5 µM | < 50 µM | < 50 µM | – | – | –
CN(CC(=O)NC(CO)CCCCN)C(=O)CCc1ccccc1 (stereo not drawn) [Example 61.3.1, Hydrocinnamoyl-Sar-NHCH(CH20H)(CH2)4--NH2] | < 50 µM | – | – | – | Inactive | Inactive
CN(CC(=O)NC(CO)CCCCNC(=O)OCc1ccccc1)C(=O)CCc1ccccc1 (stereo not drawn) [Example 61.3.2, Hydrocinnamoyl-Sar-NHCH(CH20H)(CH2)4--NH(Z)] | < 50 µM | – | – | – | Inactive | Inactive
CN(CC(=O)NC(CCCBr)B1OC2CC3CC(C3(C)C)C2(C)O1)C(=O)c1ccccc1Sc1ccccc1C#N (stereo not drawn) [Example 62.1.1] | < 50 µM | < 50 µM | < 50 µM | – | – | –
CN(CC(=O)NC(CCCCBr)B1OC2CC3CC(C3(C)C)C2(C)O1)C(=O)c1ccccc1Sc1ccccc1C#N (stereo not drawn) [Example 62.1.2] | < 50 µM | < 50 µM | < 50 µM | – | – | –
CN(CC(=O)NC(CCCSC(=N)N)B1OC2CC3CC(C3(C)C)C2(C)O1)C(=O)c1ccccc1Sc1ccccc1C#N (stereo not drawn) [Example 62.1.3, (2-(2-Cyano)-Thiophenyl)-Benzoyl-Sar-boroIrg-C10H16 HBr] | < 0.5 µM | < 0.5 µM | < 0.5 µM | – | – | –
CN(CC(=O)NC(CCCN=[N+]=[N-])B1OC2CC3CC(C3(C)C)C2(C)O1)C(=O)c1ccccc1Sc1ccccc1C#N (stereo not drawn) [Example 62.2.1] | < 50 µM | < 50 µM | < 50 µM | – | – | –
CN(CC(=O)NC(CCCCSC(=N)N)B1OC2CC3CC(C3(C)C)C2(C)O1)C(=O)c1ccccc1Sc1ccccc1C#N (stereo not drawn) [Example 62.2.2, (2-(2-Cyano)-Thiophenyl)-Benzoyl-Sar-borohomoIrg-C10H16 HBr] | < 0.5 µM | < 0.5 µM | < 50 µM | – | – | –
CN(CC(=O)NC(CCCCN=[N+]=[N-])B1OC2CC3CC(C3(C)C)C2(C)O1)C(=O)c1ccccc1Sc1ccccc1C#N (stereo not drawn) [Example 62.2.3] | < 50 µM | < 50 µM | < 50 µM | – | – | –
CN(CC(=O)NC(CCCN)B1OC2CC3CC(C3(C)C)C2(C)O1)C(=O)c1ccccc1Sc1ccccc1C#N (stereo not drawn) [Example 62.3.1, (2-(2-Cyano)-Thiophenyl)-Benzoyl-Sar-boroOrn-C10H16 HCl] | < 50 µM | < 50 µM | < 50 µM | – | – | –
CN(CC(=O)NC(CCCCNC(=N)N)B1OC2CC3CC(C3(C)C)C2(C)O1)C(=O)c1ccccc1Sc1ccccc1C#N (stereo not drawn) [Example 62.3.2, (2-(2-Cyano)-Thiophenyl)-Benzoyl-Sar-borohomoArg-C10H16 HCl] | < 0.5 µM | < 0.5 µM | < 50 µM | – | – | –
CN(CC(=O)NC(CCCNC(=N)N)B1OC2CC3CC(C3(C)C)C2(C)O1)C(=O)c1ccccc1Sc1ccccc1C#N (stereo not drawn) [Example 62.3.3, 2-(2-cyanothiophenyl)-benzoyl-Sar-BoroArg C10 H16.HCl] | < 0.5 µM | < 0.5 µM | < 0.5 µM | – | – | –
CN(CC(=O)NC(CCCSC(=N)N)B1OC2CC3CC(C3(C)C)C2(C)O1)C(=O)c1ccccc1Sc1ccccc1 (stereo not drawn) [Example 63.1.3, 2-(Thiophenyl)-Benzoyl-Sar-boroIrg-C10H16 HBr] | < 0.5 µM | < 0.5 µM | < 50 µM | – | – | –
CN(CC(=O)NC(CCCN)B1OC2CC3CC(C3(C)C)C2(C)O1)C(=O)c1ccccc1Sc1ccccc1.Cl (stereo not drawn) [Example 63.3.1, 2-(Thiophenyl)-Benzoyl-Sar-boroOrn-C10H16 HCl] | < 0.5 µM | < 50 µM | – | – | – | inactive
CC(=O)N(CC(=O)NC(CCCCN)B1OC2CC3CC(C3(C)C)C2(C)O1)Cc1ccccc1Cc1ccccc1 (stereo not drawn) [Example 64.1.2, Acetyl-Gly[N-(2-(Benzyl)-Benzyl)]-boroLys-C10H16 HCl] | < 0.5 µM | < 50 µM | < 0.5 µM | – | – | –
CN(CC(=O)NC(CCCCN)B1OC2CC3CC(C3(C)C)C2(C)O1)C(=O)c1ccccc1Cc1cccc(Cl)c1 (stereo not drawn) [Example 64.2.3, 2-(3-chlorobenzyl)-benzoyl-Sar-Borolys C10 H16.HCl] | < 0.5 µM | < 0.5 µM | < 0.5 µM | – | – | –
CC(C)(CC(=O)O)CC(=O)N(CCc1ccccc1)CC(=O)NC(CCCCN)B1OC2CC3CC(C3(C)C)C2(C)O1 (stereo not drawn) [Example 67.1.2, Glutaryl(3,3-Dimethyl)-[N-(Phenethyl)-Gly]-boroLys-C10H16] | < 0.5 µM | < 50 µM | < 50 µM | – | – | –
COC(=O)CC(C)(C)CC(=O)N(CCc1ccccc1)CC(=O)NC(CCCCN)B1OC2CC3CC(C3(C)C)C2(C)O1 (stereo not drawn) [Example 67.1.3, Methyl Glutaryl(3,3-Dimethyl)-[N-(Phenethyl)-Gly]-boroLys-C10H16 HCl] | < 0.5 µM | < 0.5 µM | < 50 µM | – | – | –
CC(C)(C)OC(=O)NC(CCC(=O)O)C(=O)N(CCc1ccccc1)CC(=O)NC(CCCCN)B(O)O (stereo not drawn) [Example 68.2.1, Boc-Glu-[N-(Phenethyl)-Gly]-boroLys--OH] | < 0.5 µM | < 50 µM | < 50 µM | – | – | –
NCCCCC(NC(=O)CN(CCc1ccccc1)C(=O)CCC(=O)O)B(O)O (stereo not drawn) [Example 68.3.1, Succinyl-[N-(Phenethyl)-Gly]-boroLys--OH] | < 0.5 µM | < 50 µM | < 50 µM | – | – | –
COC(=O)CCCC(=O)N(CCc1ccccc1)CC(=O)NC(CCCCN)B1OC2CC3CC(C3(C)C)C2(C)O1 (stereo not drawn) [Example 69.4.1, Methyl Glutaryl-[N-(Phenethyl)-Gly]-boroLys-C10H16 HCl] | < 0.5 µM | < 50 µM | < 50 µM | – | – | –
Cc1cccc(CCN(CC(=O)NC(CCCCN)B2OC3CC4CC(C4(C)C)C3(C)O2)C(=O)CCC(=O)O)c1 (stereo not drawn) [Example 73.1.2, Succinyl-[N-(3-(Methyl)-Phenethyl)-Gly]-boroLys-C10H16 HCl] | < 0.5 µM | < 0.5 µM | < 50 µM | – | – | –
